Reference: patent US11135223B2, “Compositions and methods for inhibiting Dkk-1” (YALE UNIVERSITY, priority 2016, dated 2021)

Test system: CD4 T cells
Assay: CD4 T cell activation and differentiation in vitro with Dkk-1 or Wnt3a
Type: cell-based, mice
Details: naïve CD4 T cells, Wnt3a 20% v/v, 96 hours
Excerpt: FIG. 5, comprising FIG. 5A through FIG. 5E, depicts results of experiments showing Dkk-1 induces TH2 cell polarization. FIG. 5A depicts lungs harvested for immunohistochemistry of CD3 (dark brown), CD41 (blue) and isotype control antibodies of lungs from Dkk-1^d/d mice and their wildtype littermate controls challenged with HDM extract allergen. Orange arrowheads in the images indicate co-localized CD3 T cells with CD41^+ platelets. FIG. 5B depicts ELISA analysis of Dkk-1 from plasma samples from Dkk-1^d/d mice (n=5) collected 24 hours after challenge with 50 μg HDM. FIG. 5C depicts ELISA analysis of splenic CD4 T cells from 6-8 week-old C57BL/6 mice were activated with anti-CD3 and anti-CD28 antibodies (Act) with or without Dkk-1 (30 ng/ml unless indicated) for 4 days. FIG. 5D depicts flow cytometry analysis of splenic CD4 T cells from 6-8 week-old C57BL/6 mice were activated with anti-CD3 and anti-CD28 antibodies (Act) with or without Dkk-1 (30 ng/ml unless indicated) for 4 days. FIG. 5E depicts ELISA analysis of naïve CD4 T cells stimulated anti-CD3 and anti-CD28 antibodies for 96 hr with or without Dkk-1.
FIG. 6, comprising FIG. 6A through FIG. 6E, depicts results of experiments showing Dkk-1 induces TH2 cytokines in various T cell differentiation conditions. FIG. 6A depicts flow cytometry and ELISA analysis of naïve CD4 T cells were stimulated under TH1 polarization conditions for 96 hours with or without Dkk-1. FIG. 6B depicts flow cytometry and ELISA analysis of naïve CD4 T cells were stimulated under TH2 polarization conditions for 96 hours with or without Dkk-1. FIG. 6C depicts flow cytometry analysis of Foxp3, IL-17A, and IL-10 expression in splenic naïve CD4 T cells isolated and differentiated into iTreg for 5 days with 100 U/ml IL-2 and 1.5 ng/ml TGF-β with or without 30 ng/ml and 3 ng/ml of Dkk-1 treated during the culture. FIG. 6D depicts Gata-3 expression levels of splenic naïve CD4 T cells from 8 week-old C57BL/6 mice treated with Dkk-1 with varying doses of Dkk-1 (50, 30, 7.5 ng/ml) or Wnt3a (20% v/v) for 96 hours in the presence of anti-CD3 and anti-CD28 antibody stimulation. FIG. 6E depicts qPCR results of Tcf7 and Lef1 mRNA harvested from splenic naïve CD4 T cells from 8 week-old C57BL/6 mice stimulated with or without Dkk-1 (30 ng/ml) for 96 hours. All results were statistically non-significant. All experiments are a representative of two to three independent experiments. Student's t-test or one way-ANOVA analysis with Bonferonni's post-hoc test were performed. Small horizontal lines and error bars indicate the mean (±s.e.m.). ***, p<0.0001, **, p<0.005, *, p<0.05.
FIG. 8, comprising FIG. 8A through FIG. 8G, depicts results of experiments showing Dkk-1 induces IL-10 in CD4 T cells via SGK-1 and p38 MAPK. FIG. 8A depicts ELISA analysis of naïve CD4 T cell differentiated into TH2 cells with or without Dkk-1 (30 ng/ml), SGK-1 inhibitor (2 μM) or p38 inhibitor (10 μM) for 96 hours. FIG. 8B depicts flow cytometry analysis of human naïve CD4 T cells (CD4^+CD25^−CD45RA^+) transduced with SGK-1 shRNA and selected with puromycin (0.5 μg/ml) for 48 hours. The selected cells were stimulated with anti-CD3 mAb (OKT3) and anti-CD28 mAb with or without Dkk-1 for 96 hr. For the last 5 hr of culture, stimulation cocktail (PMA/Ionomycin/Brefeldin A/Monensin) was added. FIG. 8C depicts intracellular staining with antibodies recognizing phospho-S6 kinase of splenic CD4^+CD25^− cells from 6 week-old C57BL/6 mice were isolated and activated with anti-CD3 and anti-CD28 mAb (2 μg/ml) with or without Dkk-1 (25 ng/ml) for indicated time points. FIG. 8D depicts intracellular staining with antibodies recognizing phospho-4E-BP1 of splenic CD4^+CD25^− cells from 6 week-old C57BL/6 mice were isolated and activated with anti-CD3 and anti-CD28 mAb (2 μg/ml) with or without Dkk-1 (25 ng/ml) for indicated time points. […]

Q: Which Gata-3 expression does the source give for Wnt3a here?
A: induced
